Measured values published in article PMC9014415, “Repositioning of a Diaminothiazole Series Confirmed to Target the Cyclin-Dependent Kinase CRK12 for Use in the Treatment of African Animal Trypanosomiasis” (Journal of Medicinal Chemistry, 2022).

Test system: T. b. brucei
Test: Acute T. b. brucei efficacy in mice
Assay type: in vivo, Trypanosoma brucei brucei
Conditions: 3 mg/kg bid po for 4 days
Protocol: (citrate, fumarate and phosphate) (Figure 9). These alternative salt forms of compound 2 were prepared and formulated in the best vehicle determined by injection site tolerability analysis (0.3M sodium acetate buffer, Kolliphor EL, N-methyl pyrrolidone, 2-pyrrolidone, and 11% water suitable for injection). Rat IM pharmacokinetics was then carried out with each salt to determine the salt form to use for efficacy. None of these salt forms offered any improvement in rat IM pharmacokinetic profile over the free base in the tolerated vehicle (Figure S7).
3. In vivo efficacy studies
The T. congolense (IL3000) and T. vivax (ILRAD V34) cell lines7, 8, both originating from Kenya, were used in the following in vivo mouse studies. For studies in cattle, either Trypanosoma congolense (savannah) KONT 2/133, 224) or T. vivax STIB 719 was used.
3.1 Mouse efficacy studies for T. brucei brucei.
Mouse efficacy studies for T. brucei brucei were carried out as previously detailed.9 3.2 NMRI mouse efficacy studies for T. congolense and T. vivax.
Mouse models of infections were carried out using standardized protocols. Briefly, 1 mL samples of cryopreserved T. congolense, or T. vivax-infected blood harvested directly from an infected mouse, were diluted with Hanks Balanced Salt Solution plus 20 mM glucose (HBSS+G) to 5 x 10^4 trypomastigotes/mL (5 x 105 for T. vivax). […]

## CC(C)CS(=O)(=O)N[C@H]1CC[C@H](Nc2nc(N)c(C(=O)c3c(F)cccc3F)s2)CC1 [Compound 1, N-((trans)-4-((4-Amino-5-(2,6-difluorobenzoyl)thiazol-2-yl)amino)cyclohexyl)-2-methylpropane-1-sulfonamide]
  Acute T. b. brucei efficacy in mice: Cures 3 mg/kg bid po for 4 days
